{"source": "patent US20240407993A1", "about": "“PEPTIDE HAVING ANTI-AGING ACTIVITY, AND USE THEREOF” (CAREGEN CO., LTD., priority 2021, published 2024)", "key": {"NIH3T3 cells": {"system": "NIH3T3 cells", "assay": "Intracellular ROS level after UVA irradiation (DCFH-DA, FACS) in fibroblasts", "type": "cell-based, mouse", "conditions": "8 J/cm^2 UVA, peptide 1, 10, 50 μM, 24 hours after irradiation, FIG. 4A", "procedure": "The reactive oxygen species level increases when UV is irradiated. Therefore, it was confirmed whether the reactive oxygen species level decreased again and the aging phenomenon caused by oxidative stress in cells was inhibited when treated with the peptide of the present invention.\n(§1) First, NIH3T3 cells and HaCaT cells were seeded in a 6-well plate at a cell density of 5×10^5 cell/well, respectively, and then the cells were cultured in DMEM medium containing 10% fetal bovine serum (FBS) for 24 hours. The cultured cells were washed once with serum free DMEM medium, and then the peptide of the present invention was mixed in 1 mL of the serum free DMEM medium at each of concentrations of 1, 10, and 50 μM, and dispensed into the cells. A positive control (PC) was treated with 2.5 mM of N-Acetylcysteine (NaC) instead of the above peptide.\nThe cells were cultured in a CO2 incubator at 37° C. for 1 hour. The medium of the cultured cells was transferred to a tube, 1 ml of PBS was added, and then the NIH3T3 cells were irradiated with 8 J/cm^2 of UVA and the HaCaT cells were irradiated with 15 mJ/cm^2 of UVB using a UV irradiator (VILBER LOURMAT, Cat No.: 3102-BSU, France). […] After centrifugation, the cells were washed with PBS, and a fluorescence value was measured through FACS."}, "MMP-1": {"system": "MMP-1", "assay": "MMP-1 protein expression increased by UV irradiation, western blot in keratinocytes", "type": "cell-based, human", "conditions": "HaCaT cells, 15 mJ/cm^2 UVB, peptide 1, 10, 50 μM, 24 hours after irradiation; FIG. 6B", "procedure": "The expression of MMP-1 encoding proteins related to collagen degradation increases by ultraviolet irradiation. Therefore, it was confirmed whether the expression of the MMP-1 protein was inhibited again and the cell aging phenomenon was inhibited when treated with the peptide of the present invention.\nas §1, with “medium, and the peptide” for “medium, and then the peptide”\nThe cells were cultured in a CO2 incubator at 37° C. for 1 hour. The medium of the cultured cells was transferred to a tube (e-tube), 1 ml of PBS was added, and then the NIH3T3 cells were irradiated with 6 J/cm^2 of UVA and the HaCaT cells were irradiated with 15 mJ/cm^2 of UVB using a UV irradiator (VILBER LOURMAT, Cat No.: 3102-BSU, France). After removing PBS, 900 μL of the medium transferred to the tube was added, and culture was performed in a CO2 incubator at 37° C. for 24 hours. […]"}, "Col1a1": {"system": "Col1a1", "assay": "Col1a1 mRNA level decreased by UV irradiation, RT-PCR in fibroblasts", "type": "cell-based, mouse", "conditions": "NIH3T3 cells, 8 J/cm^2 UVA, peptide 1, 10, 50 μM, 6 hours after irradiation; FIGS. 5A, 5B", "procedure": "The expression of genes related to extracellular matrix components is inhibited when irradiated with UV.\nas §1, with “NIH3T3” for “NIH3T3 cells and HaCaT”, “cell/well,” for “cell/well, respectively,”, “50 μM” for “2.5 mM”, “Quercetin” for “N-Acetylcysteine (NaC)”, “peptide. The cells were cultured in a CO2 incubator at 37° C. for 1 hour.” for “peptide.”\nThe medium of the cultured cells was transferred to a tube (e-tube), 1 ml of PBS was added, and irradiation was performed with 8 J/cm^2 of UVA using a UV irradiator (VILBER LOURMAT, Cat No.: 3102-BSU, France). After removing PBS, 900 μL of the medium transferred to the tube was dispensed, and culture was performed in a CO2 incubator at 37° C. for 6 hours. The cultured cells were washed twice with PBS, and then RNA was extracted from the cells using easy blue (iNtRON, Cat. No.: 17061, Korea). The amount of RNA extracted was quantified, 1,000 ng of RNA was added per tube, and RT reaction was performed using a kit (enzynomics, Cat. No.: RT200, Korea). […]"}}, "data": [{"sequence": "LCACCLHNCNECQ", "values": [{"measurement": "intracellular reactive oxygen species level increased by UV irradiation", "setting": "NIH3T3 cells", "value": "decreased"}, {"measurement": "expression of MMP-1 increased by UV irradiation", "setting": "MMP-1", "value": "inhibited"}, {"measurement": "mRNA level of Col1a1 decreased by UV irradiation", "setting": "Col1a1", "value": "increased again"}]}]}
